Measured values reported in patent US10954221B2, “GLP-1R agonists and uses thereof” (QILU REGOR THERAPEUTICS INC., priority 2019, dated 2021).

Experiments:
GLP1R [1] = biological target: T1, GLP1R (Homo sapiens, UniProt P43220); experiment: β-Arrestin-mediated GLP1R internalization assay (PathHunter U2OS cells); assay type: cell-based; set-up: host or cells: PathHunter engineered U2OS cells; details: averaged Bmax where applicable, Percentage of Control GLP-1 (7-37), top 10 μM, 180 min
Source text: A similar assay can also be used to assess the extent of signal attenuation due to GLP-1R internalization (the Internalization Assay). In this assay, activated GLP1R Internalization cells were engineered to co-express an untagged GLP1R, Enzyme Acceptor (EA) tagged β-Arrestin, and a ProLink™ (PK) tag localized to the endosomes. Activation of the GLP1R induces β-Arrestin recruitment, which leads to internalization of the Receptor/Arrestin-EA complex in PK-tagged endosomes. This forces complementation of the two β-galactosidase enzyme fragments (EA and PK) to form a functional enzyme that hydrolyzes substrate to generate a chemiluminescent signal.
Frozen cells were quickly thawed and 10 mL of cell plating medium (provided by the kit) was added to thawed cells. Cells were stored in a 37° C. incubator and kept for approximately 48 hours until ready for the assay.
Reference and test compounds were dissolved in 100% DMSO. […] 5 μL of this solution was added to 20 μL cell medium in assay plate for a final top concentration of 10 μM. Plates were incubated at 37° C. for 180 min.
Following 180 min incubation, detection reagents were made up by combining 1 part Galacton Star Substrate with 5 parts Emerald II™ Solution, and 19 parts of PathHunter Cell Assay Buffer, respectively. 12.5 μL detection reagent was added to each well. The plates were then incubated at room temperature for 60 min. Plates were then read on Envision for 0.1 sec/well.
EC50 determinations were made from agonist dose-response curves analyzed with a curve fitting program using a 4-parameter logistic dose response equation.
Target sequence in this assay (P43220 24-463): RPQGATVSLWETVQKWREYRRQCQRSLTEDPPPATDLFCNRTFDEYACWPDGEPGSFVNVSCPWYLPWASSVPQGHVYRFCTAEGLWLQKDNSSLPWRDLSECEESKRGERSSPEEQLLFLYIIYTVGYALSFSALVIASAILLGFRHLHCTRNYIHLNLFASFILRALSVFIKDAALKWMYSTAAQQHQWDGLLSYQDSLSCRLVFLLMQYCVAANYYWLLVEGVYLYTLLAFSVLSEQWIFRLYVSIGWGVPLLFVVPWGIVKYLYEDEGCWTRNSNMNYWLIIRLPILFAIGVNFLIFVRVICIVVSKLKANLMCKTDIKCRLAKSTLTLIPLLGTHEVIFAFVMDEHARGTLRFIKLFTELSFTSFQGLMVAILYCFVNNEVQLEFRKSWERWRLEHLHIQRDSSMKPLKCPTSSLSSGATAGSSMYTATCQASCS
Target sequence in this assay (P32121 whole entry partner, the tested form may be a part): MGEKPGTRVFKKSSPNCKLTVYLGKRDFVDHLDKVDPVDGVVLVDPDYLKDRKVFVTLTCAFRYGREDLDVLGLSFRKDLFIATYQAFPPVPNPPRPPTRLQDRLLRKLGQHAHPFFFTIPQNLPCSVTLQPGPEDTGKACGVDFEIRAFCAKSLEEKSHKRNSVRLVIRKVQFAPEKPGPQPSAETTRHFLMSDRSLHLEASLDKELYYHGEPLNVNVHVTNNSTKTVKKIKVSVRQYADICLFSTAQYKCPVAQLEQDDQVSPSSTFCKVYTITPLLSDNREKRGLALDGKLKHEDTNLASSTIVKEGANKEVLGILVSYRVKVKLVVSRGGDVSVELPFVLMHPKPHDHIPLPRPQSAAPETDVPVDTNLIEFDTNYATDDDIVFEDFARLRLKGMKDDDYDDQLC

GLP1R [2] = biological target: T1, GLP1R; experiment: GLP1R cAMP assay (HTRF), HEK293/GLP-1R/CRE/Luc, Clone 4
Target sequence in this assay (P43220 24-463): as the sequence (P43220 24-463) above

GLP1R [3] = biological target: T1, GLP1R; set-up: Emax: dose or concentration left out as unconfirmed; details: for β-arrestin recruitment Bmax (%): partial maximum relative effect at the highest concentration tested (top 10 μM), relative to Bmax of GLP-1 (7-37), PathHunter CHO-K1 GLP1R β-Arrestin cells; for Emax: CHO-K1, […], read-out: β-arrestin recruitment Bmax (%)
Target sequence in this assay (P43220 24-463): as above
Target sequence in this assay (P32121 whole entry partner, the tested form may be a part): as the sequence (P32121 whole entry partner, the tested form may be a part) above
Procedure: Frozen cells were quickly thawed and 10 mL of cell plating medium (provided by the kit) was added to thawed cells. Cells were stored in a 37° C. incubator under 5% CO2 and kept for approximately 48 hours until ready to run the assay.
Reference and test compounds were dissolved in 100% DMSO. […] 5 μL of this solution was added to 20 μL cell medium in assay plate for a final top concentration of 10 μM. Plates were then incubated at 37° C. under 5% CO2 for 90 min.
Following 90 min incubation, detection reagents were made up by combining 1 part Galacton Star Substrate with 5 parts Emerald II™ Solution, and 19 parts of PathHunter Cell Assay Buffer, respectively. 12.5 μl detection reagent was added to each well. The plates were then incubated at room temperature in dark for 60 min. Plates were then read on Envision for 0.1 sec/well.
Cells were plated at a density of 1000 or 2000 cells/20 μL/well. Frozen cells were quickly thawed and added to 10 mL of cell plating medium. Cells were stored in a 37 degree incubator under 5% CO2 and left for approximately 48 hours until ready to run the assay
Prepare 10× concentration of an agonist in serum free DMEM, and add all solutions into the compound plate. 2.5 μL of this solution was added to 20 μL cell medium in assay plate for a final top concentration of 10 μM. Plates were incubated at 37° C. under 5% CO2 for 30 min. An additional 2.5 μL of Buffer was added to the entire plate for agonist mode and incubated at 37° C. for another 90 min.
Following 90 min incubation, detection reagents were made up as described. 12.5 μL was added to all wells. The plates were then incubated at room temperature in dark for 60 min. Plates were then read on Envision for 0.1 sec/well.
Data analysis: GraphPad Prism 6 was used for establishment of progression curve. EC50s or IC50s were determined by 4-parameter logistic dose response equation.

Row | Compound | β-arrestin internalization Bmax (POC) (GLP1R [1]) | EC50 (GLP1R [2]) [nM] | β-arrestin recruitment Bmax (%) (GLP1R [3]) | Emax (GLP1R [3]) [%]
1 | N#Cc1ccc(COc2cccc(-c3ccc(Cc4nc5ccc(C(=O)O)cc5n4C[C@@H]4CCO4)cc3F)n2)c(F)c1 [Compound 75, (S)-2-(4-(6-(4-cyano-2-fluorobenzyloxy)pyridin-2-yl)-3-fluorobenzyl)-1-(oxetan-2-ylmethyl)-1H-benzo[d]imidazole-6-carboxylic acid] | 20.8 ± 10.2 | < 15 |  | 30.4 ± 1.15
2 | O=C(O)c1ccc2nc(Cc3ccc(-c4ccc(F)c(OCc5ccc(Cl)cc5F)c4)cc3F)n(C[C@@H]3CCO3)c2c1 [Compound 85] | 29.5 | < 15 |  | 37
3 | O=C(O)c1ccc2nc(CN3CC=C(c4csc(OCc5ccc(Cl)cc5F)n4)CC3)n(C[C@@H]3CCO3)c2c1 [Compound 247, (S)-2-((4-(2-((4-chloro-2-fluorobenzyl)oxy)thiazol-4-yl)-3,6-dihydropyridin-1(2H)-yl)methyl)-1-(oxetan-2-ylmethyl)-1H-benzo[d]imidazole-6-carboxylic acid] | 26.6 | < 15 |  | 
4 | N#Cc1ccc(COc2nc(-c3ccc(Cc4nc5ccc(C(=O)O)nc5n4C[C@@H]4CCO4)cc3F)ccc2F)c(F)c1 [Compound 289, (S)-2-(4-(6-((4-cyano-2-fluorobenzyl)oxy)-5-fluoropyridin-2-yl)-3-fluorobenzyl)-3-(oxetan-2-ylmethyl)-3H-imidazo[4,5-b]pyridine-5-carboxylic acid] |  | < 15 |  | 29.6
5 | N#Cc1ccc(COc2cccc(-c3ccc(Cc4nc5ccc(C(=O)O)nc5n4C[C@@H]4CCO4)cc3F)n2)c(F)c1 [Compound 293, (S)-2-(4-(6-((4-cyano-2-fluorobenzyl)oxy)pyridin-2-yl)-3-fluorobenzyl)-3-(oxetan-2-ylmethyl)-3H-imidazo[4,5-b]pyridine-5-carboxylic acid] |  | < 15 |  | 32
6 | O=C(O)c1ccc2nc(Cc3ccc(-c4ccc(F)c(OCc5ccc(Cl)cc5F)n4)c(F)c3)n(C[C@@H]3CCO3)c2n1 [Compound 305, (S)-2-(4-(6-((4-chloro-2-fluorobenzyl)oxy)-5-fluoropyridin-2-yl)-3-fluorobenzyl)-3-(oxetan-2-ylmethyl)-3H-imidazo[4,5-b]pyridine-5-carboxylic acid] |  | < 15 |  | 31.8
7 | O=C(O)c1ccc2nc(Cn3ccc(-c4cccc(OCc5ccc(Cl)cc5F)n4)cc3=O)n(C[C@@H]3CCO3)c2c1 [Compound 323, (S)-2-((6-((4-chloro-2-fluorobenzyl)oxy)-2′-oxo-[2,4′-bipyridin]-1′(2′H)-yl)methyl)-1-(oxetan-2-ylmethyl)-1H-benzo[d]imidazole-6-carboxylic acid] |  | < 15 | 19.4 | 
8 | O=C(O)c1ccc2nc(CN3CC=C(c4scnc4OCc4ccc(Cl)cc4F)CC3)n(C[C@@H]3CCO3)c2c1 [Compound 331, (S)-2-((4-(4-((4-chloro-2-fluorobenzyl)oxy)thiazol-5-yl)-3,6-dihydropyridin-1(2H)-yl)methyl)-1-(oxetan-2-ylmethyl)-1H-benzo[d]imidazole-6-carboxylic acid] |  | < 15 |  | 17.9
9 | O=C(O)c1ccc2nc(CN3CC=C(c4csnc4OCc4ccc(Cl)cc4F)CC3)n(C[C@@H]3CCO3)c2c1 [Compound 332, (S)-2-((4-(3-(4-chloro-2-fluorobenzyloxy)isothiazol-4-yl)-5,6-dihydropyridin-(2H)-yl)methyl)-1-(oxetan-2-ylmethyl)-1H-benzo[d]imidazole-6-carboxylic acid] |  | < 15 |  | 14.5
10 | N#Cc1ccc(COc2ncccc2C2=CCN(Cc3nc4ccc(C(=O)O)cc4n3C[C@@H]3CCO3)CC2)c(F)c1 [Compound 333, (S)-2-((4-(2-(4-cyano-2-fluorobenzyloxy)pyridin-3-yl)-5,6-dihydropyridin-1(2H)-yl)methyl)-1-(oxetan-2-ylmethyl)-1H-benzo[d]imidazole-6-carboxylic acid] |  | 15 to 150 |  | 9.75
11 | CC1(c2ccc(C#N)cc2F)Oc2cccc(C3=CCN(Cc4nc5ccc(C(=O)O)cc5n4C[C@@H]4CCO4)CC3)c2O1 (stereo partly drawn) [Compound 334, 2-((4-(2-(4-cyano-2-fluorophenyl)-2-methylbenzo[d][1,3]dioxol-4-yl)-3,6-dihydropyridin-1(2H)-yl)methyl)-1-(((S)-oxetan-2-yl)methyl)-1H-benzo[d]imidazole-6-carboxylic acid] |  | < 15 |  | 26.6

Further lines, results first:

Row | β-arrestin internalization Bmax (POC) (GLP1R [1]) | EC50 (GLP1R [2]) [nM] | β-arrestin recruitment Bmax (%) (GLP1R [3]) | Emax (GLP1R [3]) [%] | Compound
12 | 17.0 | < 15 | 32.1 |  | O=C(O)c1ccc2nc(Cc3ccc(-c4cccc(OCc5ccc(Cl)cc5F)n4)c(F)c3)n(C[C@@H]3CCO3)c2c1 [Compound 74, (S)-2-(4-(6-((4-chloro-2-fluorobenzyl)oxy)pyridin-2-yl)-3-fluorobenzyl)-1-(oxetan-2-ylmethyl)-1H-benzo[d]imidazole-6-carboxylic acid]
13 | 21.6 | < 15 |  | 25.1 | O=C(O)c1ccc2nc(Cc3ccc(-c4cccc(OCc5ccc(Cl)cc5F)c4)c(F)c3)n(C[C@@H]3CCO3)c2c1 [Compound 76, (S)-2-((3′-((4-chloro-2-fluorobenzyl)oxy)-2-fluoro-[1,1′-biphenyl]-4-yl)methyl)-1-(oxetan-2-ylmethyl)-1H-benzo[d]imidazole-6-carboxylic acid]
14 | 22.5 | < 15 |  | 39.4 | O=C(O)c1ccc2nc(Cc3ccc(-c4nc(OCc5ccc(Cl)cc5F)c(F)cc4F)c(F)c3)n(C[C@@H]3CCO3)c2c1 [Compound 77, (S)-2-(4-(6-((4-chloro-2-fluorobenzyl)oxy)-3,5-difluoropyridin-2-yl)-3-fluorobenzyl)-1-(oxetan-2-ylmethyl)-1H-benzo[d]imidazole-6-carboxylic acid]
15 | 7.49 | < 15 |  | 22.7 | O=C(O)c1ccc2nc(Cc3ccc(-c4ccc(F)c(OCc5ccc(Cl)cc5F)c4)c(F)c3)n(C[C@@H]3CCO3)c2c1 [Compound 78, (S)-2-((3′-((4-chloro-2-fluorobenzyl)oxy)-2,4′-difluoro-[1,1′-biphenyl]-4-yl)methyl)-1-(oxetan-2-ylmethyl)-1H-benzo[d]imidazole-6-carboxylic acid]
16 | 9.25 | 15 to 150 |  | 19.7 | O=C(O)c1ccc2nc(Cc3ccc(-c4cc(OCc5ccc(Cl)cc5F)ccc4F)c(F)c3)n(C[C@@H]3CCO3)c2c1 [Compound 79, (S)-2-((5′-((4-chloro-2-fluorobenzyl)oxy)-2,2′-difluoro-[1,1′-biphenyl]-4-yl)methyl)-1-(oxetan-2-ylmethyl)-1H-benzo[d]imidazole-6-carboxylic acid]
17 | 21.2 | < 15 |  | 31.6 | O=C(O)c1ccc2nc(Cc3ccc(-c4ccnc(OCc5ccc(Cl)cc5F)n4)c(F)c3)n(C[C@@H]3CCO3)c2c1 [Compound 80, (S)-2-(4-(2-((4-chloro-2-fluorobenzyl)oxy)pyrimidin-4-yl)-3-fluorobenzyl)-1-(oxetan-2-ylmethyl)-1H-benzo[d]imidazole-6-carboxylic acid]
18 | 30.6 | < 15 |  | 37.2 | O=C(O)c1ccc2nc(Cc3ccc(-c4ncc(F)c(OCc5ccc(Cl)cc5F)n4)c(F)c3)n(C[C@@H]3CCO3)c2c1 [Compound 81, (S)-2-(4-(4-(4-chloro-2-fluorobenzyloxy)-5-fluoropyrimidin-2-yl)-3-fluorobenzyl)-1-(oxetan-2-ylmethyl)-1H-benzo[d]imidazole-6-carboxylic acid]
19 | 13.8 | < 15 |  | 20.1 | O=C(O)c1ccc2nc(Cc3ccc(-c4nc(OCc5ccc(Cl)cc5F)ncc4F)c(F)c3)n(C[C@@H]3CCO3)c2c1 [Compound 82, (S)-2-(4-(2-(4-chloro-2-fluorobenzyloxy)-5-fluoropyrimidin-4-yl)-3-fluorobenzyl)-1-(oxetan-2-ylmethyl)-1H-benzo[d]imidazole-6-carboxylic acid]
20 | 27.8 | < 15 |  | 44.6 | O=C(O)c1ccc2nc(Cc3ccc(-c4ccc(F)c(OCc5ccc(Cl)cc5F)n4)c(F)c3)n(C[C@@H]3CCO3)c2c1 [Compound 83, (S)-2-(4-(6-((4-chloro-2-fluorobenzyl)oxy)-5-fluoropyridin-2-yl)-3-fluorobenzyl)-1-(oxetan-2-ylmethyl)-1H-benzo[d]imidazole-6-carboxylic acid]
